According to US10981858B2, “Dendrimer and formulations thereof” (Priostar Pty Ltd, priority 2015, dated 2021):
“Also recorded” adds a separate entry of the source.

Columns and labels:
Type in all cases: physicochemical
[1] = 2,4-D/dendrimer hard water testing (clarity, sedimentation); settings: 30° C.; for Appearance at Addition / Appearance/Sedimentation After 24 Hrs.: 2,4-D Amine in 342 ppm hard water; for Appearance of 2,4-D solutions in hard water: all concentrations tested (from 1.4 to 10%), 342 ppm hard water, 24 hours
Procedure: 342 ppm hard water was prepared as per CIPAC method MT18. The hard water was heated to 30° C. […]

[2] = 2,4-D/dendrimer formulation stability study (crystallisation at 0° C.); settings: for Crystallisation After 7 Days at 0° C. With Seeding: 2,4-D Amine 625 g/l seeded with 2,4-D Amine salt; for Crystallisation After 7 Days at 0° C.: without seeding
Procedure: 20 ml of 2,4-D Amine(2,4-D 625 g/l market sample, Rygel, Adama Australia) was transferred to 25 ml clear vials and dendrimer added (with or without 30% Dithethylene Glycol). Caps were tightened to ensure no moisture entered the vials. Formulations were placed in a freezer at 0° C. […] In a related experiment, formulations were prepared with seeding with 2,4-D Amine salt (Shanghai Biochemical Sci. Ltd., purity 98 in order to hasten rate of crystallisation. The results are provided in Table 2.

[3] = Solubilization of water insoluble surfactant Ethoxylated Lauryl alcohol-3 M in LA-9 solution; settings: 50 g, until hazy
Procedure: 5% w/w aqueous solution of Ethoxylated Lauryl alcohol-9 mole (water soluble surfactant) was prepared in Deionized water (2.5 g in 47.5 ml). Dendrimer compounds 1 and 4 were diluted 70:30 w/w in Diethylene glycol. The 5% Ethoxylated Lauryl alcohol-9 M (LA-9) solution was combined with dendrimer DEG solution at 90:10, 80:20 and 70:30 w/w (total weight 50 g).
Ethoxylated lauryl alcohol-3 mole (water insoluble surfactant) was added dropwise, while stirring, to the 50 g LA-9 solution (with or without dendrimer), until it became hazy. The weight of Ethoxylated lauryl alcohol-3 M added was recorded.

[4] = Solubilization of Methylated seed oil (MSO) in aqueous LA-9 solution; settings: 50 g, until hazy
Procedure: 10% aqueous solution of Ethoxylated Lauryl alcohol-9 mole (water soluble surfactant) was prepared in Deionized water (5 g in 45 ml). Dendrimer compounds 1 and 4 were prepared 70:30 w/w in Diethylene glycol (DEG). The 10% Ethoxylated Lauryl alcohol-9 M (LA-9) solution was combined with dendrimer DEG solution at 80:20 and 60:40 w/w (total weight of 50 g).
Methylated seed oil (MSO) (STEPOSOL-ROE-W, canola oil methyl ester, Stepan) was added dropwise under stirring to the 10% LA-9 solution (with or without dendimers), until the solution became hazy. Weight of MSO added was recorded.

Cloud point studies = settings: 1 gm. dendrimer solution (70:30 w/w dendrimer:Diethylene Glycol) in 99 gm. of 10% NaOH solution
Procedure: 1 gm. of dendrimer solution (70:30 w/w dendrimer [Compound 1 or Compound 4]:Diethylene Glycol) was dissolved in 99 gm. of 10% NaOH solution in Deionized water and heated until hazy. Temperature of the solution was measured using calibrated thermometer.

[5] = Water value of dendrimers with solvent (Solvesso 200); settings: 50 g aqueous solution, 7% dendrimer and 3% DEG; until hazy
Procedure: 50 g Aqueous solution of Dendrimer were prepared containing 7% dendrimer and 3% Diethylene glycol (DEG) by weight. Solvesso 200 (C10-13 aromatic hydrocarbon solvent) was added dropwise under stirring until the solution became hazy. Weight of Solvesso added was recorded.

[6] = Dynamic viscosity of aqueous dendrimer solution (Brookfield); settings: aqueous solution 7% dendrimer and 3% DEG, ambient temperature, spindle no. 63 at 50 rpm
Procedure: 50 g aqueous solution of dendrimer (7% dendrimer and 3% DEG) was prepared in deionized water in a beaker, and subjected to dynamic viscosity measurement using Brookfield viscometer at ambient temperature. Viscosity studies were conducted using spindle no. 63 at 50 rpm. It was observed that viscosity of Compound-1 solution was 1.8 cps and Compound-4 solution was 0.6 cps.

[7] = Tebuconazole 600 SC hard water testing: suspensibility, column thinning, sedimentation; settings: 2 ml Tebuconazole 600 SC, dendrimer 0.7%, in 98 ml 342 ppm hard water, 30° C., 24 hours
Procedure: (§1) Formulations were prepared by mixing water, surfactant, dispersing agent, wetting agent and antifoam together then gradually adding active. High shear mix for 20-30 minutes to disperse formulation ingredients in water before adding the active and mixing until homogeneous. The mixture was milled on a Dyno bead mill (1 m/s) with 0.4-0.6 mm beads at max. 40° C. until particle size was <4 um. Dendrimer compound (in DEG) was added and stirred for 20 minutes. Thickener and antimicrobial was then added and stirred for 20 minutes. Formulations were deaerated by sonication.
98 ml of 342 ppm hard water (prepared as per CIPAC method MT18) was heated to 30° C. before adding 2 ml. of Tebuconazole 600 SC formulation. Temperature was maintained at 30° C. for 24 hours and formulation characteristics were studied for suspension stability, wetting, column thinning/separation and sedimentation.

[8] = Tebuconazole 600 SC wetting study in hard water; settings: one drop Tebuconazole 600 SC, dendrimer 0.7%, in 342 ppm hard water at 30° C.
Procedure: as §1
Wetting studies were conducted by placing one drop of Tebuconazole 600 SC formulation in 342 ppm hard water at 30° C. and recording the time when all the formulation particles were wet and dispersed in water.

[9] = Tebuconazole 600 SC formulation viscosity (Table 8); settings: dendrimer 0.7%
Procedure: as §1

[10] = Additional tebuconazole formulations: suspension stability and viscosity; settings: additional tebuconazole formulation, 0.8% additive
Excerpt: Additional formulations were developed, and formulation characteristics were studied for suspension stability, and viscosity.

[11] = 2,4-D Amine 625 g/l, dendrimer 2%
[12] = 2,4-D Amine 625 g/l, dendrimer 5%
[13] = 2,4-D Amine 625 g/l, dendrimer 10%

SMILES: CCC(COCC(O)CN(CCOC)CCOC)(COCC(O)CN(CCOC)CCOC)COCC(O)CN(CCOC)CCOC (stereo not shown) [Compound 8, 11-((3-(bis(2-methoxyethyl)amino)-2-hydroxypropoxy)methyl)-11-ethyl-5,17-bis(2-methoxyethyl)-2,9,13,20-tetraoxa-5,17-diazahenicosane-7,15-diol]
- Appearance at Addition ([1]; dendrimer 2% (w/w)): Clear
- Appearance/Sedimentation After 24 Hrs. ([1]; dendrimer 2% (w/w)): Hazy with sediment
- Appearance at Addition ([1]; dendrimer 5% (w/w)): Clear
- Appearance/Sedimentation After 24 Hrs. ([1]; dendrimer 5% (w/w)): Hazy with sediment
- Appearance at Addition ([1]; dendrimer 10% (w/w)): Clear
- Appearance/Sedimentation After 24 Hrs. ([1]; dendrimer 10% (w/w)): Hazy with sediment
- Appearance of 2,4-D solutions in hard water [1]: hazy solutions with sediment

SMILES: CCC(COCC(O)CN(CCO)CCO)(COCC(O)CN(CCO)CCO)COCC(O)CN(CCO)CCO (stereo not shown) [Compound 1, 9-((3-(bis(2-hydroxyethyl)amino)-2-hydroxypropoxy)methyl)-9-ethyl-3,15-bis(2-hydroxyethyl)-7,11-dioxa-3,15-diazaheptadecane-1,5,13,17-tetraol, reference compound]
- Appearance at Addition ([1]; dendrimer 1.4% (w/w), 0.6% DEG): Clear
- Appearance/Sedimentation After 24 Hrs. ([1]; dendrimer 1.4% (w/w), 0.6% DEG): Hazy with sediment
- Appearance at Addition ([1]; dendrimer 2% (w/w)): Clear
- Appearance/Sedimentation After 24 Hrs. ([1]; dendrimer 2% (w/w)): Hazy with sediment
- Appearance at Addition ([1]; dendrimer 3.5% (w/w), 1.5% DEG): Clear
- Appearance/Sedimentation After 24 Hrs. ([1]; dendrimer 3.5% (w/w), 1.5% DEG): Hazy with sediment
- Appearance at Addition ([1]; dendrimer 5% (w/w)): Clear
- Appearance/Sedimentation After 24 Hrs. ([1]; dendrimer 5% (w/w)): Hazy with sediment
- Appearance at Addition ([1]; dendrimer 7% (w/w), 3% DEG): Clear
- Appearance/Sedimentation After 24 Hrs. ([1]; dendrimer 7% (w/w), 3% DEG): Hazy with sediment
- Appearance at Addition ([1]; dendrimer 10% (w/w)): Clear
- Appearance/Sedimentation After 24 Hrs. ([1]; dendrimer 10% (w/w)): Hazy with sediment
- Appearance of 2,4-D solutions in hard water [1]: hazy solutions with sediment
- Crystallisation After 7 Days at 0° C. With Seeding ([2]; dendrimer 1.4%, Diethylene Glycol 0.6%): Crystallised
- Crystallisation After 7 Days at 0° C. With Seeding ([2]; dendrimer 3.5%, Diethylene Glycol 1.5%): Crystallised
- Crystallisation After 7 Days at 0° C. With Seeding ([2]; dendrimer 7%, Diethylene Glycol 3%): Crystallised
- Crystallisation at 0° C. with seeding ([2]; 2,4-D Amine 625 g/l, all the dosages of dendrimer): crystallised
- Crystallisation After 14 Days at 0° C. ([2]; 2,4-D Amine 625 g/l, dendrimer 1.4%, Diethylene Glycol 0.6%): Crystallised
- Crystallisation After 14 Days at 0° C. [2, 11]: Crystallised
- Crystallisation After 14 Days at 0° C. ([2]; 2,4-D Amine 625 g/l, dendrimer 3.5%, Diethylene Glycol 1.5%): Crystallised
- Crystallisation After 14 Days at 0° C. [2, 12]: Crystallised
- Crystallisation After 14 Days at 0° C. ([2]; 2,4-D Amine 625 g/l, dendrimer 7%, Diethylene Glycol 3%): Crystallised
- Crystallisation After 14 Days at 0° C. [2, 13]: Crystallised
- Crystallisation After 7 Days at 0° C. [2, 11]: resulted in crystallisation; also recorded: Crystallised
- Crystallisation After 7 Days at 0° C. [2, 12]: resulted in crystallisation; also recorded: Crystallised
- Crystallisation After 7 Days at 0° C. [2, 13]: No
- Quantity LA-3 added to LA-9 solution ([3]; ratio 5% LA-9 solution:dendrimer/DEG solution 70:30 (w/w), 21% dendrimer (w/w)): 1.96 g
- Quantity LA-3 added to LA-9 solution ([3]; ratio 5% LA-9 solution:dendrimer/DEG solution 80:20 (w/w), 14% dendrimer (w/w)): 2.00 g
- Quantity LA-3 added to LA-9 solution ([3]; ratio 5% LA-9 solution:dendrimer/DEG solution 90:10 (w/w), 7% dendrimer (w/w)): 1.83 g
- Quantity MSO added to 10% LA-9 solution ([4]; ratio LA-9 solution:dendrimer/DEG solution 60:40 (w/w), 28% dendrimer (w/w)): 0.56 g
- Quantity MSO added to 10% LA-9 solution ([4]; ratio LA-9 solution:dendrimer/DEG solution 80:20 (w/w), 14% dendrimer (w/w)): 0.54 g
- Cloud point (temperature at which solution turned hazy) (Cloud point studies): 65 °C
- Quantity Solvesso 200 added [5]: 1.31 g
- Dynamic viscosity [6]: 1.8 cps
- Suspensibility: Sediment [7]: 0.5 mL⁻¹
- Suspensibility: nature of sediment [7]: Compact
- Suspensibility: Column Thinning ([7]; top thinning): 10 ml. Top
- Wetting [8]: 33.3 s
- Viscosity 0 C. ([9]; 0 C.): 786
- Viscosity 54 C. ([9]; 54 C.): 743
- Viscosity RT ([9]; RT): 720 cP
- Observation: consistency [10]: Pseudoplastic liquid,
- Observation: sediment at 0 C. ([10]; 0 C.): no sediment at 0 C.
- Viscosity (cP) 0 C. ([10]; 0 C.): 2844 cP
- Viscosity (cP) RT ([10]; RT): 2566 cP
